Test results reported in paper PMC6009911, “Inhibition of human cytochromes P450 2A6 and 2A13 by flavonoids, acetylenic thiophenes and sesquiterpene lactones from Pluchea indica and Vernonia cinerea” (Journal of Enzyme Inhibition and Medicinal Chemistry, 2017).
Where two headings read alike, the source gives them in different places.

Legend:
Assay type in all cases: biochemical
[1] = target: T1, CYP2A6 (Homo sapiens, UniProt P11509); test: Effects of trapping agents and dialysis on inactivation of CYP2A6; parameters: made in house; settings: CYP2A6 inhibition reaction mixture, probe coumarin, compound 5 µM
T1 sequence (P11509 1-494): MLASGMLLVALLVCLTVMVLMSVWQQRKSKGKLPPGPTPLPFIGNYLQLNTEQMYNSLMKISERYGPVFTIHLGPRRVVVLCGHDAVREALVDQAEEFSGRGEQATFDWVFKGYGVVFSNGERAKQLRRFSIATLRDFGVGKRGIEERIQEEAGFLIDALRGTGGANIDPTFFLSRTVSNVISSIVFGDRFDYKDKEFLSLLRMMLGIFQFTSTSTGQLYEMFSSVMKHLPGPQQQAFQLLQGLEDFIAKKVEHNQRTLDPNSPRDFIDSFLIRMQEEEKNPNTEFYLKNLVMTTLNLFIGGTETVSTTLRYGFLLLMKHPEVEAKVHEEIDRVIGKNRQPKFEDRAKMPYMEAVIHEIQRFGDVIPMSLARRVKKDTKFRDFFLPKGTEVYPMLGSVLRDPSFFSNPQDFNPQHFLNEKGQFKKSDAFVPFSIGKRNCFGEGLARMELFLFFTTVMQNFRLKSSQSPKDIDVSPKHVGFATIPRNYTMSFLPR
Description: (§1) MBI requires NADPH and time to generate reactive intermediate as inhibitor and ultimately inactivates the enzyme. MBI was evaluated by pre-incubation with each test inhibitor in the reaction at different time periods (0, 10, 20 and 30 min) in the presence of NADPH for time-dependent assay, as described. The apparent inactivation constants, KI and Kinact, were obtained from double reciprocal plots of kobs versus inhibitor concentrations by linear regression analysis on GraphPad Prism 5. Methoxsalen was used as a control mechanism-based inhibitor for time- and NADPH-dependent inhibition assays.
To explore whether inactivation of CYP2As by thiophenes 9–11 and of CYP2A13 by hirsutinolides 5-8 could be reversed, the removal of reversible inhibitory compounds by dialysis and addition of trapping agents (GSH, semicarbazide, catalase or potassium ferricyanide) in the inhibition reaction mixture were performed. […] Similarly, mechanism-based inactivation of both CYP2A6 and CYP2A13 by thiophenes 9–11 could not be reversed (Table 3).

[2] = target: T1, CYP2A6; test: Inhibition of CYP2A6-mediated coumarin 7-hydroxylation, enzymatic reconstitution assay; parameters: made in house
Description: Inhibitory effect of plant extracts, fractions, subfractions and constituents was determined by inhibition assay on CYP2A6- and CYP2A13-mediated coumarin 7-hydroxylation. The recombinant human CYP2A6, CYP2A13 and rat NADPH-dependent cytochrome P450 oxidoreductase (CYPOR) proteins were expressed, purified, according to the methods previously described. […] Rate of 7-hydroxycoumarin product formation was measured on spectrofluorometer (Shimadzu, Kyoto, Japan) at λex = 355 nm, λem = 460 nm. Inhibition effects were determined by incubation with extracts, fractions or purified compounds with coumarin substrate in the reaction mixture and calculated as per cent relative inhibition compared with vehicle control reaction[20] and IC50 values were calculated using GraphPad Prism 5 (GraphPad Software Inc., La Jolla, CA).
as §1

[3] = target: T2, CYP2A13 (Homo sapiens, UniProt Q16696); test: Mechanism-based (time- and NADPH-dependent) inactivation of CYP2A13
T2 construct: made in house
T2 sequence (Q16696 1-494): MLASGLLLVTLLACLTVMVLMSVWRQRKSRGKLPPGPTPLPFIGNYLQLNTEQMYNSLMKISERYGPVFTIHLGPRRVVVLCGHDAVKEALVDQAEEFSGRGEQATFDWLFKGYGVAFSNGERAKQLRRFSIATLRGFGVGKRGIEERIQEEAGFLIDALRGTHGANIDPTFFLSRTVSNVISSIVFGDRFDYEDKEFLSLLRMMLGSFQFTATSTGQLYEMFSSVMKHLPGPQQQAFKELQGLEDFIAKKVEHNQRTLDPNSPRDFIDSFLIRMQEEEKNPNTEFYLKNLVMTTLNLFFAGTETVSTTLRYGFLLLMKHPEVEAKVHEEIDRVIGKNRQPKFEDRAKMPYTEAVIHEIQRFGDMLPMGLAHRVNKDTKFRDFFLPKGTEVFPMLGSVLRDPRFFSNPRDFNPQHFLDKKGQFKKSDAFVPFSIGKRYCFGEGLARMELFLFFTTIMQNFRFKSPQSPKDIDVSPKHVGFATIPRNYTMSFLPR
In short: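 Inhibitor preincubated with enzyme and NADPH for 0, 10, 20 and 30 min before the reaction. KI and Kinact derived from double reciprocal plots of kobs versus inhibitor concentration by linear regression; methoxsalen served as reference inactivator.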

[4] = target: T2, CYP2A13; test: Inhibition of CYP2A13-mediated coumarin 7-hydroxylation, enzymatic reconstitution assay
In short: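 Purified recombinant CYP2A6 or CYP2A13 reconstituted with rat CYPOR; coumarin 7-hydroxylation read by 7-hydroxycoumarin fluorescence (ex 355/em 460 nm), inhibition as % of vehicle control with IC50 fitted.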

[5] = target: T1, CYP2A6; test: Inhibition of CYP2A6-mediated nicotine metabolism; parameters: made in house; settings: compound at IC50 value; nicotine 50 μM; 30 min; Supplemental Figure S2
Description: Supplementary Figure S2. Inhibition effects of thiophene 11 on CYP2A6-mediated […]
mediated nicotine metabolism (B). Nicotine metabolism in the presence and absence of inhibitory test compounds, at IC50 value, was performed by incubation of the reaction mixture with nicotine substrate (a final concentration of 50 μM) prior to initiation of each reaction with 50 μM NADPH at room temperature. Each reaction was terminated by addition of ice-cold acetronitrile at 30 min incubation and 50 pmol 7-hydroxycoumarin as internal standard was added. The reaction was centrifuged (12,000 rpm, 10 min, 4 °C) and 20 μl of each sample was analyzed on symmetry RP-C18 column (3.9×150 mm). Gradient condition was isocratic of 12% ACN: 2-propanol (7:3) in 10 mM potassium phosphate buffer (pH 7.4) at flow rate of 1 ml/min. The nicotine peak area in each reaction was compared with that of time zero. The enzyme activity was determined as percent substrate consumption over 30 min. The reactions were […]
(1 picture or pasted object on this page, not shown here)

[6] = target: T2, CYP2A13; test: Effects of trapping agents and dialysis on inactivation of CYP2A13; settings: CYP2A13 inhibition reaction mixture, probe coumarin, compound 5 µM
In short: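 Recombinant enzyme preincubated with inhibitor and NADPH for 0, 10, 20 and 30 min; KI and kinact taken from double-reciprocal plots of kobs versus inhibitor concentration by linear regression. Reversibility probed by dialysis and by adding trapping agents (GSH, semicarbazide, catalase or potassium ferricyanide). Methoxsalen served as mechanism-based control.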

[7] = target: T1, CYP2A6; test: Mechanism-based (time- and NADPH-dependent) inactivation of CYP2A6; parameters: made in house
Description: as §1

[8] = read-out: Per cent remaining activity, 70 μM K3Fe(CN)6
[9] = read-out: Per cent remaining activity, 2 mM GSH
[10] = read-out: Per cent remaining activity, 5 mM semicarbazide
[11] = read-out: Per cent remaining activity, 2000 U catalase
[12] = read-out: Per cent remaining activity, Dialysis (+) NADPH
[13] = read-out: Per cent remaining activity, Dialysis (−) NADPH
[14] = read-out: Per cent remaining activity, Pre-incubation
[15] = time- and concentration-dependent inactivation

**Q.** With `CC#Cc1ccc(C#CC#CC(O)CO)s1` (centres unmarked) [Thiophene 11, 2-(prop-1-inyl)-5–(5,6-dihydroxyhexa-1,3-diinyl) thiophene] as the compound, how does the activity at 5 µM [1, 8] read?
**A.** The activity at 5 µM was 11.2 ± 2.96%.

**Q.** And the activity at 5 µM [1, 9]?
**A.** Its activity at 5 µM is 8.42 ± 0.9%.

**Q.** And the activity at 5 µM [1, 10]?
**A.** Its activity at 5 µM is 12.9 ± 3.47%.

**Q.** What about the activity at 5 µM [1, 11] of the same compound?
**A.** Its activity at 5 µM is 14.4 ± 1.41%.

**Q.** And the activity at 5 µM [1, 12]?
**A.** Its activity at 5 µM is 10.1 ± 1.84%.

**Q.** And the activity at 5 µM [1, 13]?
**A.** Its activity at 5 µM is 82.4 ± 2.49%.

**Q.** What about the activity at 5 µM [1, 14] of the same compound?
**A.** The activity at 5 µM was 12.5 ± 1.93%.

**Q.** And the “CYP2A6 Mode of inhibition” value [2]?
**A.** The value was “Mixed type”.

**Q.** What about the IC50 ([2]; 10-min pre-incubation in the presence of NADPH, read-out: IC50 CYP2A6 Pre-incubation) of the same compound?
**A.** Its IC50 is 0.18 ± 0.01 µM.

**Q.** What about the IC50 ([2]; coincubation, coumarin 2 µM, read-out: IC50 CYP2A6 Coincubation) of the same compound?
**A.** Its IC50 is 3.9 ± 0.2 µM.

**Q.** And the Ki ([2]; coumarin 0–40 µM)?
**A.** Its Ki is 1.8 ± 0.18 µM.

**Q.** And the kinact ([3]; pre-incubation 0-30 min with NADPH)?
**A.** Its kinact is 0.000833 s⁻¹.

**Q.** What about the KI (inactivation) ([3]; pre-incubation 0-30 min with NADPH, read-out: CYP2A13 KI (inactivation constant)) of the same compound?
**A.** Its KI (inactivation) is 0.67 ± 0.08 µM.

**Q.** What about the “KI, CYP2A13 (in Figure 2)” value [3, 15] of the same compound?
**A.** Its value is 0.67 ± 0.08.

**Q.** And the “CYP2A13 Mode of inhibition” value [4]?
**A.** The value was “Mixed type”.

**Q.** And the IC50 ([4]; 10-min pre-incubation in the presence of NADPH, read-out: IC50 CYP2A13 Pre-incubation)?
**A.** Its IC50 is 1.47 ± 0.12 µM.

**Q.** What about the IC50 ([4]; coincubation, coumarin 2 µM, read-out: IC50 CYP2A13 Coincubation) of the same compound?
**A.** The IC50 was 2.4 ± 0.33 µM.

**Q.** What about the Ki ([4]; coumarin 0–40 µM) of the same compound?
**A.** Its Ki is 1.08 ± 0.05 µM.

**Q.** And the “inhibition of CYP2A6-mediated nicotine metabolism” value [5]?
**A.** Its value is “showed inhibition”.

**Q.** And the activity at 5 µM [6, 8]?
**A.** Its activity at 5 µM is 18.87 ± 0.18%.

**Q.** And the activity at 5 µM [6, 9]?
**A.** The activity at 5 µM was 23.5 ± 1.72%.

**Q.** And the activity at 5 µM [6, 10]?
**A.** The activity at 5 µM was 19.6 ± 2.73%.

**Q.** What about the activity at 5 µM [6, 11] of the same compound?
**A.** Its activity at 5 µM is 19.5 ± 2.95%.

**Q.** And the activity at 5 µM [6, 12]?
**A.** The activity at 5 µM was 19.6 ± 4.21%.

**Q.** And the activity at 5 µM [6, 13]?
**A.** Its activity at 5 µM is 96.84 ± 0.73%.

**Q.** And the activity at 5 µM [6, 14]?
**A.** The activity at 5 µM was 20.2 ± 2.76%.

**Q.** What about the kinact ([7]; human, recombinant human CYP2A6, probe coumarin, pre-incubation 0-30 min with NADPH) of the same compound?
**A.** The kinact was 0.00167 s⁻¹.

**Q.** And the KI (inactivation) ([7]; human, recombinant human CYP2A6, probe coumarin, pre-incubation 0-30 min with NADPH, read-out: CYP2A6 KI (inactivation constant))?
**A.** Its KI (inactivation) is 0.11 ± 0.02 µM.

**Q.** What about the “KI, CYP2A6 (in Figure 2)” value [7, 15] of the same compound?
**A.** Its value is 0.11 ± 0.02.
